Results from patent US20190010524A1, “BIOLOGICAL METHODS FOR PREPARING A FATTY DICARBOXYLIC ACID” (Verdezyne, Inc., priority 2012, published 2019).

Assays:
[1] = tested on: strain sAA2178; assay: Production of DDDA using sucrose or dextrose as co-feed (Example 68); assay type: cell-based, Candida; conditions: co-feed 0.9 g/L-h; for production of DDDA: ethyl laurate feed, three fermentations averaged
Description: A pre-culture of 80 mL SP92 in a 500 mL baffled flask with foam plugs was inoculated with 1.0 mL from a frozen glycerol stock of strain sAA2178 (beta-oxidation blocked strains plus amplified CPRB, CYP52A19, ADH2a, ADH8, and HFD2) and incubated for 24 h at 30° C. and 250 RPM. […] Growth was initiated an inoculum of pre-culture to an initial OD600nm=1.0 and growth conditions of 35° C., 1000 rpm, 1 vvm, pH 5.8. Growth continued for approximately 10-12 h at which point the conversion phase was initiated by a continuous feed of ethyl laurate. […] The data from three fermentations were averaged for the comparison.

[2] = tested on: strain sAA2178; assay: Production of DDDA with glycerol or xylose substituted for dextrose as co-feed (Example 69); assay type: cell-based, Candida; conditions: co-feed 1.25 g/L-h; for production of DDDA: ethyl laurate feed
Description: A pre-culture of 80 mL SP92 in a 500 mL baffled flask with foam plugs was inoculated with 1.0 mL from a frozen glycerol stock of strain sAA2178 (beta-oxidation blocked strains plus amplified CPRB, CYP52A19, ADH2a, ADH8, and HFD2) and incubated for 24 h at 30° C. and 250 RPM. […] Growth was initiated with an inoculum of pre-culture to an/initial OD600nm=1.0 and growth conditions of 35° C., 1000 rpm, 1 vvm; pH 5.8. Growth continued for approximately 10-12 h at which point the conversion phase was initiated by a continuous feed of ethyl laurate. Ethyl laurate was fed at a rate of 0.75 g/L-h for the first 24 h; 1.28 g/L-h from 24 h to termination. In addition, a co-feed of either dextrose, glycerol or xylose was fed at a rate of 1.25 g/L-h for all fermentations.

[3] = tested on: strain sAA1082; conditions: ethanol co-feed 0.7 g/L-h
Description: Fermentation medium (MM1) at pH 5.8 was filter sterilized and transferred to a sterile fermentation vessel. For the control, dextrose was used for both growth and co-feed. For the experimental fermentations, glycerol or xylose was substituted oh a g/g basis for dextrose in both the growth medium (MM1) and in the co-feed. Growth was initiated with an inoculum of pre-culture to an initial OD600nm=1.0 and growth conditions of 35° C., 1000 rpm, 1 vvm, pH 5.8. Growth continued for approximately 10-12 h at which point the conversion phase was initiated by a continuous feed of methyl laurate. Methyl laurate was fed at a rate of 0.7 g/L-h for the first 24 h; 1.2 g/L-h from 24 h to termination. In addition, a co-feed of ethanol was fed at a rate of 0.7 g/L-h. The ethanol feed-rate was reduced relative to what would normally be used for glucose (1.2 g/l-h), since ethanol is theoretically a more energy-rich compound. At induction, the temperature was changed to 30° C. and the pH was maintained at 6.0 by addition of 6N KOH.

[4] = tested on: Candida strain ATTC 20962; assay: Shake flask bioconversion of feedstocks of varying chain length (Example 72); assay type: cell-based; conditions: ethyl esters 1% v/v, alkanes 3% v/v
Description: (§1) The bioconversion tests in this Example were undertaken following a shake flask protocol. […] The YPD contained 10 g/L yeast extract, 20 g/L peptone, and 20 g/L dextrose. These cultures were then placed in a 30° C. shaking incubator at 250 rpm for 18 to 20 hours.
(§2) After this growth phase, these cultures were used to inoculate 350 ml of SP92-glycerol media dispensed into 10-250 ml wide mouth flasks in 35 ml aliquots for each strain. The SP92-glycerol media contained 6.7 g/L yeast nitrogen base, 3 g/L yeast extract, 3 g/L ammonium sulfate, 1 g/L potassium phosphate monobasic; 1 g/L potassium phosphate, dibasic, and 75 g/L glycerol (Picataggio S., et al., Biotechnology (NY) 1992 August; 10 (8):894-8). The cultures were then placed in a 30° C. shaking incubator at 300 rpm for 20 to 24 hours.
(§3) The cells were then centrifuged for 5 minutes at 3000 rpm and the supernatant discarded. The cells were resuspended in DCA3 medium supplemented with 1.0% triton-X100. DCA3 is a 0.3 M potassium phosphate buffer, pH 7.5 containing 6.7 g/L yeast nitrogen base and 50 g/L glycerol. Variations of DCA3 media recipes are known, non-limiting examples of which include the addition of dextrose and/or glycerol, the like or combinations thereof. DCA3 media, as referred to herein, can include dextrose and/or glycerol. After re-suspension, the OD600 nm for each culture was adjusted to a common OD (based on the available OD for the strain with the least growth) and 10 ml was transferred to pre-weighed 250 ml bottom baffled shake flasks. The flasks were then reweighed to determine the starting weight of the culture. The substrate to be converted was then added at 1% v/v for ethyl esters and 3% v/v for alkanes. The increased amount of alkanes added was due to their volatility to ensure that sufficient substrate remained in solution for bioconversion. The flasks were weighed once more to determine the exact amount of substrate added to each flask and were then placed, in a 30° C. shaking incubator at 300 rpm for 4 hours. Bioconversion tests for ethyl-stearate and ethyl palmitate were performed at 35° C. due to melting point limitations for these substrates.
(§4) After 48 hours, the flasks were weighed once more to determine the weight of the final culture. The cultures were mixed well by swirling and 1 ml was transferred to a pre-weighed 15 ml falcon tube containing 0.8 ml of 6N HCl. The tube was weighed to determine the density of the final culture and this number used to determine the culture volume present at the final time point. Samples were submitted to analytical for analysis by GC.

[5] = tested on: sAA1082; assay: as above; assay type: cell-based, Candida; conditions: for Feedstock Yield (g diacid/g added feedstock) sAA-1082: shake flask, ethyl esters 1% v/v, alkanes 3% v/v
Description: as §1, §2, §3, §4

[6] = tested on: sAA2178; assay: as above; assay type: cell-based, Candida; conditions: for Feedstock Yield (g diacid/g added feedstock) sAA-2178: shake flask, ethyl esters 1% v/v, alkanes 3% v/v
Description: as §1, §2, §3, §4

Compound | HFA levels [2] | lauric acid accumulated [2] | production of DDDA [2] | Feedstock Yield (g diacid/g added feedstock) ATTC-20962 [4] | % improvement over ATTC 20962 sAA-1082 [5] | Feedstock Yield (g diacid/g added feedstock) sAA-1082 [5] | % improvement over ATTC 20962 sAA-2178 [6] | Feedstock Yield (g diacid/g added feedstock) sAA-2178 [6] | further results
O=C[C@H](O)[C@@H](O)[C@H](O)[C@H](O)CO [dextrose] | 1.24 g/L | 0.37 g/L | 0.825 g/L-h |  |  |  |  |  | lauric acid accumulated [1]: 0.52 g/L; production of DDDA [1]: 0.872 g/L-h
CCO [ethanol] |  |  |  |  |  |  |  |  | accumulation of HFA [3]: 5.3 g/L; accumulation of lauric acid [3]: 8.5 g/L; accumulation of methyl laurate [3]: 38 g/L; DDDA productivity ([3]; methyl laurate feed): 0.446 gL
OCC(O)CO [glycerol] | 0.33 g/L | 12.28 g/L | 0.327 g/L-h |  |  |  |  |  | production of DDDA, less than with dextrose [2]: about 60%
CCCCCCCCCCCCC [n-Tridecane] |  |  |  | 0.680 g diacid/g added feedstock | 38.3% | 0.941 g diacid/g added feedstock | 27.7% | 0.868 g diacid/g added feedstock | 
CCCCCCCCCCC [n-Undecane] |  |  |  | 0.312 g diacid/g added feedstock | 23.7% | 0.386 g diacid/g added feedstock | 29.3% | 0.403 g diacid/g added feedstock | 
CCCCCCCCCCCCCCCCC [n-heptadecane] |  |  |  | 0.473 g diacid/g added feedstock | 17.3% | 0.555 g diacid/g added feedstock | 8.6% | 0.514 g diacid/g added feedstock | 
CCCCCCCCCCCCCCC [n-pentadecane] |  |  |  | 0.505 g diacid/g added feedstock | 33.1% | 0.673 g diacid/g added feedstock | 16.8% | 0.590 g diacid/g added feedstock | 
OC[C@H]1O[C@@](CO)(O[C@H]2O[C@H](CO)[C@@H](O)[C@H](O)[C@H]2O)[C@@H](O)[C@@H]1O [sucrose] |  |  |  |  |  |  |  |  | lauric acid accumulated [1]: 1.56 g/L; production of DDDA, less than with dextrose [1]: about 3%; production of DDDA [1]: 0.847 g/L-h
O=C[C@H](O)[C@@H](O)[C@H](O)CO [xylose] | 0.20 g/L | 19.04 g/L | 0.211 g/L-h |  |  |  |  |  | production of DDDA, less than with dextrose [2]: about 75%
